How the values were obtained:
human bone sarcoma U2OS = experiment: MTT assay, U2OS; assay type: cell-based; conditions: 72-h incubation
Protocol: (§1) Human colon carcinoma HT29, human breast carcinoma MCF7, human bone sarcoma U2OS, human prostate carcinoma PC3, and human cervix carcinoma HeLa cells were obtained from the ATCC. A2780/CP70 cisplatin-resistant human ovarian cancer cells were kindly provided by Dr. Stephen B. Howell (Moores UCSD Cancer Center) and the human lung carcinoma cell lines A549 and normal lung fibroblast MRC5 by David E. Root (Whitehead Institute for Biomedical Research). Cells were incubated at 37° C. in 5% CO2 and grown in RPMI (HT29, A2780/CP70, and PC3) or DMEM (A549, MRC5, HeLa, MCF7, and U2OS) medium supplemented with 10% fetal bovine serum and 1% penicillin/streptomycin. Cells were passed every 3 to 4 days and restarted from a frozen stock upon reaching pass number 20.
(§2) Solutions of the platinum compounds were freshly prepared in sterile PBS before use and their concentrations quantitated by atomic absorption spectroscopy. […] The cells were then treated with 20 μL of 3-(4,5-dimethylthiazol-2-yl)-2,5-diphenyltetrazolium bromide (MTT) (5 mg/mL in PBS) and incubated for 4 h. The medium was removed, 100 μL of DMSO was added to the cells, and the absorbance of the purple formazan was recorded at 560 nm using a BioTek Synergy HT multi-detection microplate plate reader. Each condition was performed in triplicate and three independent experiments were carried out for each cell line.

[1] = test system: normal lung fibroblast MRC5; experiment: MTT assay, MRC5; assay type: cell-based, human
Protocol: as §1, §2

[2] = test system: Human colon carcinoma HT29; experiment: MTT assay, HT29; assay type: cell-based
Protocol: as §1, §2

[3] = test system: human cervix carcinoma HeLa cells; experiment: MTT assay, HeLa; assay type: cell-based; conditions: 72-h incubation
Protocol: (§6) Solutions of the platinum compounds were freshly prepared in sterile PBS before use and their concentrations quantitated by atomic absorption spectroscopy. Cells were seeded on a 96-well plate (1200 cells per well for cancer cells and 1800 cells per well for the normal lung fibroblasts) in 100 μL RPMI or DMEM media, and incubated for 24 h. […] The cells were then treated with 20 μL of 3-(4,5-dimethylthiazol-2-yl)-2,5-diphenyltetrazolium bromide (MTT) (5 mg/mL in PBS) and incubated for 4 h. The medium was removed, 100 μL of DMSO was added to the cells, and the absorbance of the purple formazan was recorded at 560 nm using a BioTek Synergy HT multi-detection microplate plate reader. Each condition was performed in triplicate and three independent experiments were carried out for each cell line.
(§7) Human prostate carcinoma (PC3) and human cervix carcinoma (HeLa) cells were obtained from the ATCC. The human lung carcinoma cell line A549 was kindly provided by David E. Root (Whitehead Institute for Biomedical Research). Cells were incubated at 37° C. in 5% CO2 and grown in RPMI (PC3) or DMEM (A549 and HeLa) medium supplemented with 10% fetal bovine serum and 1% penicillin/streptomycin. Cells were passaged every 3 to 4 days and restarted from the frozen stock upon reaching passage number 20.
(§8) Solutions of the platinum agents were freshly prepared in sterile PBS before use and the platinum content was quantitated by AAS. Cells were seeded on 96 well plates (1200 cells per well) in 100 μL RPMI or DMEM media\ and incubated for 24 hours. […] The cells were then treated with 20 μL of 3-(4,5-dimethylthiazol-2-yl)-2,5-diphenyltetrazolium bromide (MTT) (5 mg/mL in PBS) and incubated for 4 h. The medium was removed, 100 μL of DMSO were added to the cells, and the absorbance of the purple formazan was recorded at 570 nm using a BioTek Synergy HT multi-detection microplate plate reader. For each cell line, three independent experiments were carried out in triplicate.

[4] = test system: human lung carcinoma A549; experiment: MTT assay, A549; assay type: cell-based
Protocol: as §6, §7, §8

NTera2 = experiment: MTT assay, NTera2; assay type: cell-based, human; conditions: Table 3, NTera2 Testis, 72-h incubation
Protocol: as §6

[5] = test system: human prostate carcinoma PC3; experiment: MTT assay, PC3; assay type: cell-based; conditions: Table 3, PC3 Prostate, 72-h incubation
Protocol: as §6, §7, §8

[6] = test system: human breast carcinoma MCF7; experiment: MTT assay, MCF7; assay type: cell-based; conditions: Table 3, MCF7 Breast, 72-h incubation
Protocol: as §1, §2

[7] = test system: GLuc expression in HT29 cells; experiment: Transcription assay, globally platinated pGLuc, HT29; assay type: cell-based, human; conditions: for transcription level (normalized against unplatinated plasmid): Pt/DNA ratio of […] for phenanthriplatin
Protocol: (§3) Transfection of transcription probes into A549 and HT29 cells with the pGLuc plasmid was carried out using liposomal transfecting agents. Determination of expression levels was tested by Luciferase assays monitored by a luminometer (J. Am. Chem. Soc. 2010, 132, 7429-7435). A549 cells were plated in 96-well plates at 2,000 cells/well and HT29 cells were plated in 96-well plates at 6,000 cells/well. After 48 h incubation (at ˜30% confluence), cells were transfected with 50 ng of platinated plasmids in 25 μL Opti-MEM and 0.125 μL Lipofectamine 2000, and subsequently 50 μL of antibiotics-free DMEM supplemented with 10% FBS. After 2 h, the cells were washed with medium and 100 μL of fresh medium was added. The experiment was carried out in quadruplicate.
(§4) GLuc activity was monitored using a luminescence plate reader (Synergy 2, BioTek, Winooski, Vt., USA). A 10 μL volume of medium at different time points (12, 24, 36, 48, 60 h) was transferred into opaque white 96-well plates, and 25 μL of GLuc assay solution (10 μM colelenterazine (NanoLight Technologies, Pinetop, Ariz., USA) in 2.5 mM acidified methanol (100 mM HCl), buffer (10 mM Tris-HCl pH 7.8, 1 mM EDTA, 0.6 M NaCl)) was added by the automatic injector of the instrument.
(§5) In another embodiment, A549 or HT29 cells were transfected using the platinated transcription probes, and transcription levels were investigated by determining GLuc expression as measured by […] following addition of coelenterazine as a substrate for the exported enzyme. The emission intensities were normalized against unplatinated plasmids as a control. Transcription profiles were obtained by plotting normalized levels of GLuc expression against platination levels (Pt/plasmid ratio) at five different time points. […] An increase in D0 value at different time points represents restoration of transcription.

[8] = equimolar N-AcMet, 37° C.
Protocol: NMR spectra were collected on a Varian 500 spectrometer equipped with a triple-resonance broadband inverse probe and a variable temperature unit. The 1-D ^1H NMR kinetic studies were performed in duplicate as a standard time-arrayed experiment using a variable delayed list. Incremented 1-D spectra were processed in exactly the same way and signals of aromatic amine ligands from platinum compounds were integrated. The relative concentrations of the platinum compound at each time point were calculated from peak integrals. […] Reactions of platinum compounds with N-AcMet were performed in NMR tubes containing 2 mM of the Pt complex and 2 mM (1 equiv) of N-AcMet in 10 mM PBS buffer, D2O, pH*7.4 at 37° C. […] Deuterated 3-(trimethylsilyl)propionic acid sodium salt (TMS-PFASS) was used as an internal standard. The pH* values are the measured pH values without correction for the effect of deuterium on the electrode.

5′-dGMP = conditions: 16 equiv 5′-dGMP, 37° C., PBS pH 7.4
Protocol: (§9) The 1-D ^1H NMR kinetic studies were performed in duplicate as a standard time-arrayed experiment using a variable delayed list. Incremented 1-D spectra were processed in exactly the same way and signals of aromatic amine ligands from platinum compounds were integrated. The relative concentrations of the platinum compound at each time point were calculated from peak integrals. […] Reactions of platinum compounds with 5′-dGMP were performed in NMR tubes containing 2 mM of the platinum compounds and 32 mM (16 equiv) of 5′-dGMP in 10 mM PBS buffer, D2O, pH*7.4 at 37° C.

pGLuc plasmid = experiment: Platination of pGLuc plasmid; assay type: biochemical
Protocol: The resulting mixtures were dialyzed (molecular weight cut-off 3.5 kDa) against ddH2O overnight at 4° C. with five changes of ddH2O. The rb values (bound Pt/nucleotide) were determined by UV/Vis and atomic absorption spectroscopy.
In one embodiment, the ratio of bound platinum per plasmid was determined by measuring the Pt concentration by atomic absorption spectroscopy and the DNA concentration by UV/Vis spectroscopy.

[9] = D2O at 37° C.
Protocol: as §9

[10] = test system: GLuc expression in A549 cells; experiment: Transcription assay, globally platinated pGLuc, A549; assay type: cell-based, human; conditions: for transcription level (normalized against unplatinated plasmid): Pt/DNA ratio of […] for phenanthriplatin
Protocol: as §3, §4, §5

calf thymus DNA = experiment: Ethidium bromide DNA-binding competition, Scatchard analysis; set-up: key: competitive (type A); non-competitive (type D); both (type B); No inhibition of ethidium binding is labeled as type C
Source text: Using this approach, it is possible to determine whether the inhibition of ethidium binding is competitive (type A), non-competitive (type D), or both (type B). No inhibition of ethidium binding is labeled as type C.

[11] = Table 3, HT29 Colorectal, 72-h incubation
[12] = Table 3, A549 Lung, 72-h incubation
[13] = Table 4, A549 human lung carcinoma, 72 h incubation

N.N.O=[N+]([O-])[O-].[Cl][Pt+].c1ccc2nc3ccccc3cc2c1 [cis-[Pt(NH3)2(acridine)Cl]NO3]
IC50 (human bone sarcoma U2OS; Table 5, U2OS): 4.42 ± 0.31 µM
IC50 ([1]; Table 5, MRC5, 72-h incubation): 9.17 ± 0.47 µM
IC50 ([2]; Table 5, HT29, 72-h incubation): 13.5 ± 0.7 µM
IC50 ([3]; Table 5, HeLa): 2.69 ± 0.1 µM
IC50 ([4]; Table 5, A549, 72-h incubation): 3.74 ± 0.01 µM

Cc1cccnc1N.N.N.O=[N+]([O-])[O-].[Cl][Pt+] [cis-[Pt(NH3)2 (2-amino-3-methylpyridine)-Cl]NO3]
IC50 ([1]; Table 5, MRC5, 72-h incubation): 51.7 ± 7.7 µM
IC50 ([2]; Table 5, HT29, 72-h incubation): 72.9 ± 4.6 µM
IC50 ([4]; Table 5, A549, 72-h incubation): 47.1 ± 1.4 µM

cis-[Pt(NH3)2(quinoline)Cl]NO3
IC50 (human bone sarcoma U2OS; Table 5, U2OS): 23.5 ± 2.7 µM
IC50 ([1]; Table 5, MRC5, 72-h incubation): 23.5 ± 1.6 µM
IC50 ([2]; Table 5, HT29, 72-h incubation): 38 ± 4.5 µM
IC50 ([3]; Table 5, HeLa): 12.2 ± 0.8 µM
IC50 ([4]; Table 5, A549, 72-h incubation): 8.11 ± 0.68 µM

O=C1[O][Pt]2([NH][C@@H]3CCCC[C@H]3[NH]2)[O]C1=O [oxaliplatin]
IC50 (human bone sarcoma U2OS; Table 3, U2OS Bone): 8.67 ± 0.59 µM
IC50 (NTera2): 1.12 ± 0.08 µM
IC50 [2, 11]: 1.81 ± 1.15 µM
IC50 ([3]; Table 3, HeLa Cervix): 11.8 ± 1.4 µM
IC50 [5]: 13.2 ± 4 µM
IC50 [6]: 17.9 ± 2.7 µM
IC50 [4, 12]: 6.79 ± 0.26 µM
IC50 [4, 13]: 10.5 ± 0.18 µM

N.N.O=[N+]([O-])[O-].[Cl][Pt+].c1ccncc1 [pyriplatin, cis-[Pt(NH3)2(pyridine)Cl]NO3]
IC50 (human bone sarcoma U2OS; Table 3, U2OS Bone): 78.9 ± 6.7 µM
IC50 (human bone sarcoma U2OS; Table 5, U2OS): 78.9 ± 6.7 µM
IC50 (NTera2): 5.16 ± 0.96 µM
transcription level (normalized against unplatinated plasmid) ([7]; HT29, 12 h): 55.3%
D0 (Pt lesions per plasmid required to reduce transcription levels to 37% of control) ([7]; HT29, 12 h after transfection): 35.6 Pt/plasmid
D0 (Pt lesions per plasmid required to reduce transcription levels to 37% of control) ([7]; HT29, 24 h after transfection): 40.5 Pt/plasmid
D0 (Pt lesions per plasmid required to reduce transcription levels to 37% of control) ([7]; HT29, 36 h after transfection): 42.9 Pt/plasmid
D0 (Pt lesions per plasmid required to reduce transcription levels to 37% of control) ([7]; HT29, 48 h after transfection): 44.5 Pt/plasmid
transcription level (normalized against unplatinated plasmid) ([7]; HT29, 60 h): 75.2%
D0 (Pt lesions per plasmid required to reduce transcription levels to 37% of control) ([7]; HT29, 60 h after transfection): 49.3 Pt/plasmid
reaction with N-AcMet more rapid than that for phenanthriplatin [8]: > 10 fold
second-order rate constant, reaction with N-AcMet [8]: 0.156 M⁻¹ s⁻¹
IC50 ([1]; Table 4, MRC5 normal lung fibroblast, 72 h incubation): 92.1 ± 9.9 µM
IC50 ([1]; Table 5, MRC5, 72-h incubation): 92.1 ± 9.9 µM
IC50 [2, 11]: 144 ± 10 µM
IC50 ([2]; Table 5, HT29, 72-h incubation): 144 ± 10 µM
IC50 ([3]; Table 3, HeLa Cervix): 31.3 ± 2.8 µM
IC50 ([3]; Table 5, HeLa): 31.3 ± 2.8 µM
pseudo-first order rate constant, reaction with 5′-dGMP (5′-dGMP): 0.29 h⁻¹
IC50 [5]: 47.9 ± 9.2 µM
Pt per plasmid (pGLuc plasmid; rf 0.0016, 16 h at 37° C.): 13.33 Pt per plasmid
rb (bound Pt/nucleotide) (pGLuc plasmid; rf 0.0016, 16 h at 37° C.): 0.0017
Pt per plasmid (pGLuc plasmid; rf 0.004, 16 h at 37° C.): 31.19 Pt per plasmid
rb (bound Pt/nucleotide) (pGLuc plasmid; rf 0.004, 16 h at 37° C.): 0.0039
Pt per plasmid (pGLuc plasmid; rf 0.0076, 16 h at 37° C.): 57.96 Pt per plasmid
rb (bound Pt/nucleotide) (pGLuc plasmid; rf 0.0076, 16 h at 37° C.): 0.0073
Pt per plasmid (pGLuc plasmid; rf 0.015, 16 h at 37° C.): 117.31 Pt per plasmid
rb (bound Pt/nucleotide) (pGLuc plasmid; rf 0.015, 16 h at 37° C.): 0.0015
equilibrium constant for aquation [9]: approximately 0.05
time after which aquation reaction is complete (equilibrium with aqua analogue) [9]: 1 h
transcription level (normalized against unplatinated plasmid) ([10]; A549, 12 h): 55.2%
D0 (Pt lesions per plasmid required to reduce transcription levels to 37% of control) ([10]; A549, 12 h after transfection): 39.2 Pt/plasmid
D0 (Pt lesions per plasmid required to reduce transcription levels to 37% of control) ([10]; A549, 24 h after transfection): 58.5 Pt/plasmid
D0 (Pt lesions per plasmid required to reduce transcription levels to 37% of control) ([10]; A549, 36 h after transfection): 68.8 Pt/plasmid
D0 (Pt lesions per plasmid required to reduce transcription levels to 37% of control) ([10]; A549, 48 h after transfection): 85.2 Pt/plasmid
transcription level (normalized against unplatinated plasmid) ([10]; A549, 60 h): 66.8%
D0 (Pt lesions per plasmid required to reduce transcription levels to 37% of control) ([10]; A549, 60 h after transfection): 89.1 Pt/plasmid
IC50 [6]: 109 ± 10 µM
IC50 [4, 12]: 52.1 ± 2.3 µM
IC50 [4, 13]: 52.1 ± 2.25 µM
IC50 ([4]; Table 5, A549, 72-h incubation): 52.1 ± 2.3 µM
type of inhibition of ethidium binding (Scatchard) (calf thymus DNA; 12-h incubation period): type C
type of inhibition of ethidium binding (Scatchard) (calf thymus DNA; 1 min incubation period): type C

Reference: patent publication US9034862B2, “Compositions and methods for the treatment of cancer” (priority 2011, dated 2015)
